Test results published in ChEMBL document CHEMBL1140503, “Discovery of 1,1-dioxo-1,2,6-thiadiazine-5-carboxamide derivatives as cannabinoid-like molecules with agonist and antagonist activity” (Bioorg Med Chem, 2007).
Calls of active or inactive are those of the source. The rule behind the calls is not given here.

Columns and labels:
Cannabinoid receptor 1 [1] = molecular target: T1, Cannabinoid receptor 1 (Mus musculus, UniProt P47746); experiment: (§1) Agonist activity at CB1 receptor in ICR mouse vas deferens assessed as inhibition of electrically-stimulated contraction; format: functional, tissue-based
Cannabinoid receptor 1 [2] = molecular target: T1, Cannabinoid receptor 1; experiment: Antagonist activity at CB1 receptor in ICR mouse vas deferens assessed as reversal of WIN-55212-2-induced effect on electrically-stimulated contraction; format: functional, tissue-based; settings: read-out: pA2 (converted)
[3] = Antagonism of WIN-55212-2 mediated antinociceptive activity in ICR mouse at 1 mg/kg ip dose; format: functional, organism-based; set-up: dose 1 mg/kg; settings: filed as antagonist
[4] = molecular target: Cannabinoid receptor 1 (Mus musculus) (UniProt P47746); experiment: as §1; format: functional, tissue-based
Mus musculus [5] = experiment: Antinociceptive activity in ICR mouse at 1.5 mg/kg, ip by hot plate test; format: functional, organism-based; set-up: dose 1.5 mg/kg
Mus musculus [6] = experiment: Induction of hypothermic effect in ICR mouse at 1.5 mg/kg, ip; format: functional, organism-based; set-up: dose 1.5 mg/kg
Mus musculus [7] = experiment: Inhibition of spontaneous motility in ICR mouse at 1.5 mg/kg, ip; format: functional, organism-based; set-up: dose 1.5 mg/kg
Mus musculus [8] = experiment: Induction of catalepsy in ICR mouse at 1.5 mg/kg, ip by ring test; format: functional, organism-based; set-up: dose 1.5 mg/kg
Mus musculus [9] = experiment: Prevention of spontaneous activity reduction in ICR mouse at 1 mg/kg, ip; format: functional, organism-based; set-up: dose 1 mg/kg
Mus musculus [10] = experiment: Increase in locomotory activity in ICR mouse at 20 mg/kg, ip; format: functional, organism-based; set-up: dose 20 mg/kg
Mus musculus [11] = experiment: Effect on cannabinoid behavioral sign in ICR mouse at 0.2 mg/kg, icv; format: functional, organism-based; set-up: dose 0.2 mg/kg

Cannabinoid receptor 1 (Mus musculus), sequence (P47746 whole entry): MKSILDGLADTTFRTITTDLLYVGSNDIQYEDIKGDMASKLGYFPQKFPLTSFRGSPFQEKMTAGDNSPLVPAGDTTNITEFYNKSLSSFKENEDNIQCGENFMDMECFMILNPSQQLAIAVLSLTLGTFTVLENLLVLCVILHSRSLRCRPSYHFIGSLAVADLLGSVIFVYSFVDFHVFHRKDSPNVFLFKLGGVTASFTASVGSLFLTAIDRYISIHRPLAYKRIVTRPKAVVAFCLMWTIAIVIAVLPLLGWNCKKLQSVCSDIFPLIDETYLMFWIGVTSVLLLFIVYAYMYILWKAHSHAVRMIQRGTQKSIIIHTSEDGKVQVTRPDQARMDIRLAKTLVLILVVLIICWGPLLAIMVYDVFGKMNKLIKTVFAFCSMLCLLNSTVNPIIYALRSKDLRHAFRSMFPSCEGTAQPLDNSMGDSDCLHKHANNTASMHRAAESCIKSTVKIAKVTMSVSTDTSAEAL
T1 sequence (P47746 whole entry): as above

Structure (SMILES) | EC50 (Cannabinoid receptor 1 [1]) [µM] | Agonism [4] | also measured
CCCCCCN1C(C)=CC(C(=O)NN2CCCCC2)=NS1(=O)=O | 36.9 | – | –
O=C(NN1CCCCC1)C1=NS(=O)(=O)N(Cc2ccccc2)C(c2ccc(Cl)cc2)=C1 | 13.5 | – | Kb (Cannabinoid receptor 1 [2]): 0.12 µM; Antagonism [3]: Antagonist
CC1=CC(C(=O)NN2CCCCC2)=NS(=O)(=O)N1Cc1ccccc1 | – | inactive | –
CC1=CC(C(=O)NN2CCCCC2)=NS(=O)(=O)N1C1CCCCC1 | – | inactive | –
O=C(NN1CCCCC1)C1=NS(=O)(=O)N(Cc2ccc(Cl)cc2Cl)C(c2ccc(Cl)cc2)=C1 | – | inactive | –
Cc1cc(C2=CC(C(=O)NN3CCCCC3)=NS(=O)(=O)N2Cc2ccccc2)ccc1Cl | – | inactive | –
Cc1c(C(=O)NN2CCCCC2)nn(-c2ccc(Cl)cc2Cl)c1-c1ccc(Cl)cc1 | – | – | Antagonism [3]: Antagonist
O=C(NN1CCCCC1)C1=NS(=O)(=O)N(C2CCCCC2)C(c2ccc(Br)cc2)=C1 | 38.4 | – | –
CC1=CC(C(=O)NN2CCOCC2)=NS(=O)(=O)N1Cc1ccccc1 | – | inactive | –
CC1=CC(C(=O)NC2CCCCC2)=NS(=O)(=O)N1c1ccccc1 | – | inactive | –
O=C(NN1CCOCC1)C1=NS(=O)(=O)N(Cc2ccccc2)C(c2ccc(Br)cc2)=C1 | – | inactive | –
O=C(NN1CCCCC1)C1=NS(=O)(=O)N(Cc2ccc(Cl)cc2Cl)C(c2ccc(Br)cc2)=C1 | – | inactive | –
Cc1cc(C2=CC(C(=O)NC3C4(C)CCC(C4)C3(C)C)=NS(=O)(=O)N2Cc2ccccc2)ccc1Cl (stereo not given) | – | inactive | –
CC12CCC(C1)C(C)(C)C2NC(=O)C1=NS(=O)(=O)N(Cc2ccc(Cl)cc2Cl)C(c2ccc(Cl)cc2)=C1 (stereo not given) | – | inactive | –
Cc1cc(C2=CC(C(=O)NC3CCCCC3)=NS(=O)(=O)N2Cc2ccc(Cl)cc2Cl)ccc1Cl | 36.9 | – | –
O=C(Nc1ccccc1)C1=NS(=O)(=O)N(Cc2ccccc2)C(c2ccc(Cl)cc2)=C1 | 5.73 | – | –
CC1=CC(C(=O)NN2CCCCC2)=NS(=O)(=O)N1c1ccc(Cl)cc1 | – | inactive | –
O=C(NN1CCCCC1)C1=NS(=O)(=O)N(Cc2ccccc2)C(c2ccc(Br)cc2)=C1 | – | inactive | –
CCCCCCN1C(c2ccc(Cl)cc2)=CC(C(=O)NN2CCCCC2)=NS1(=O)=O | 8.44 | – | Kb (Cannabinoid receptor 1 [2]): 0.209 µM
Cc1c(C(=O)c2cccc3ccccc23)c2cccc3c2n1[C@H](CN1CCOCC1)CO3 | – | – | Activity (Mus musculus [5]): Active; Activity (Mus musculus [6]): Active; Activity (Mus musculus [7]): Active; Activity (Mus musculus [8]): Active; Activity (Mus musculus [9]): Active
CC12CCC(C1)C(C)(C)C2NC(=O)C1=NS(=O)(=O)N(Cc2ccccc2)C(c2ccc(Cl)cc2)=C1 (stereo not given) | 11.9 | – | Activity (Mus musculus [10]): Active; Activity (Mus musculus [11]): inactive
